Assays:
Peregrin (Homo sapiens) = target: T1, Peregrin (Homo sapiens) (UniProt P55201); experiment: Selectivity interaction (Human bromodomain panel (DSF assay)) EUB0000233b BRPF1
T1 sequence (whole entry): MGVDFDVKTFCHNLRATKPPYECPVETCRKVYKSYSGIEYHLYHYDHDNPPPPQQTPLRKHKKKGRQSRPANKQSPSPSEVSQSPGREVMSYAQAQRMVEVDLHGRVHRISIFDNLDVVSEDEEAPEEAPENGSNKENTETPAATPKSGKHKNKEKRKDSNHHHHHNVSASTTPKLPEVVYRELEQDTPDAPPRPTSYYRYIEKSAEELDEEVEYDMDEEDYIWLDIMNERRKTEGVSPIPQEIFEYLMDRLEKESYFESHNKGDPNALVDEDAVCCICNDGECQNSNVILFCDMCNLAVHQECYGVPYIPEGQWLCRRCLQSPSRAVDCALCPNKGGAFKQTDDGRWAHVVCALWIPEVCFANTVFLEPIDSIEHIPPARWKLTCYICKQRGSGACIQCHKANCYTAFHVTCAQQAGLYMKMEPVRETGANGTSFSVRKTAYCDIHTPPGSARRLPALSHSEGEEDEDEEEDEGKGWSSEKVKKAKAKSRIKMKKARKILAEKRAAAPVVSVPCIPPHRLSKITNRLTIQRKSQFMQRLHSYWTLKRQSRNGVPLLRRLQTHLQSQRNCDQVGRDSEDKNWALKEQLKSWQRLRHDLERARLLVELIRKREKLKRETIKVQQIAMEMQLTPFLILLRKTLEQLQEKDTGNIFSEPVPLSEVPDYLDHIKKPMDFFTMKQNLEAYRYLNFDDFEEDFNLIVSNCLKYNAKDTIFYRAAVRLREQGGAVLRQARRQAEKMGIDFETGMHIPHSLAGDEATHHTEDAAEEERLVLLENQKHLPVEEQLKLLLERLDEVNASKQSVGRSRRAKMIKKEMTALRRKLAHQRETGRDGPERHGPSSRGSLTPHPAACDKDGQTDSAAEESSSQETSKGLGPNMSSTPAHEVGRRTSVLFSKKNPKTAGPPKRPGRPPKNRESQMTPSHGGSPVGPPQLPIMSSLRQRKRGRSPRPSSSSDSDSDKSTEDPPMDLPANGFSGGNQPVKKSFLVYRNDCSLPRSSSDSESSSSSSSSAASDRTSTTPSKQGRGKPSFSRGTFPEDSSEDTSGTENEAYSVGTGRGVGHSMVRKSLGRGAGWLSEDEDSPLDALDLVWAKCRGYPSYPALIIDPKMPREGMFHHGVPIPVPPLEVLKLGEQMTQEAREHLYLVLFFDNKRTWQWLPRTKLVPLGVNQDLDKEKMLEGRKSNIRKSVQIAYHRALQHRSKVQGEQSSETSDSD

[1] = target: T2, Tyrosine-protein kinase Mer (Homo sapiens) (UniProt Q12866); experiment: Selectivity interaction (SelectScreen profiling (Invitrogen)) EUB0000607a MERTK; details: at 2 µM
T2 sequence (whole entry): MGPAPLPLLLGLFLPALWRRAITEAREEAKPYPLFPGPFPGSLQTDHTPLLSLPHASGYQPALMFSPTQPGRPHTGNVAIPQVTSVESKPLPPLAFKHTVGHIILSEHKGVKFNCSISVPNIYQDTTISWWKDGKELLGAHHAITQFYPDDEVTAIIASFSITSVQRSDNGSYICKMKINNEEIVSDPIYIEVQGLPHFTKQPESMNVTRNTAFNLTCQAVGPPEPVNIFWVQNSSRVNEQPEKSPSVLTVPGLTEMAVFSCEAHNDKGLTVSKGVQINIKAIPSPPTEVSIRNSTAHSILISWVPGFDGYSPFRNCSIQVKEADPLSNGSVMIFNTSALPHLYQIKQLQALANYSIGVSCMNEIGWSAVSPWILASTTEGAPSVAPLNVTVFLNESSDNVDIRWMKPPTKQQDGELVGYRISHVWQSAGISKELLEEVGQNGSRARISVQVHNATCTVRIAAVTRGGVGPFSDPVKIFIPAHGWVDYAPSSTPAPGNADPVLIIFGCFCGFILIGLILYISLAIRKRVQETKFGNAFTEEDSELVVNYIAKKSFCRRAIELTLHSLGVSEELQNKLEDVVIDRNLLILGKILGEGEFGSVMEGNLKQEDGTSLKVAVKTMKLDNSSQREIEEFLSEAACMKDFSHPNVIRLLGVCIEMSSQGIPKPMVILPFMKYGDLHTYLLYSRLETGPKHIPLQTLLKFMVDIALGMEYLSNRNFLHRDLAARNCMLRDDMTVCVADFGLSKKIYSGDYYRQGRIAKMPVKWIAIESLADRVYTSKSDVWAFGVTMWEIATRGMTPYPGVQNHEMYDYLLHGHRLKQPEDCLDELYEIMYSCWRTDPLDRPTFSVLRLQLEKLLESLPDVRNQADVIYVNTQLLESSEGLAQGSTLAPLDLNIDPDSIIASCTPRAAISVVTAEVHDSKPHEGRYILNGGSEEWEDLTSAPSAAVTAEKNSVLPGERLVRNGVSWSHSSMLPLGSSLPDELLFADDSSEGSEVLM

[2] = target: Calcium/calmodulin-dependent protein kinase kinase 2 (Homo sapiens) (UniProt Q96RR4); experiment: Selectivity interaction (KinomeScan (DiscoverX)) EUB0001049a CAMKK2; details: at 1 µM
[3] = target: T3, Mitogen-activated protein kinase kinase kinase 7 (Homo sapiens) (UniProt O43318); experiment: Selectivity interaction (KinomeScan (DiscoverX)) EUB0000655a MAP3K7; details: at 10 µM
T3 sequence (whole entry): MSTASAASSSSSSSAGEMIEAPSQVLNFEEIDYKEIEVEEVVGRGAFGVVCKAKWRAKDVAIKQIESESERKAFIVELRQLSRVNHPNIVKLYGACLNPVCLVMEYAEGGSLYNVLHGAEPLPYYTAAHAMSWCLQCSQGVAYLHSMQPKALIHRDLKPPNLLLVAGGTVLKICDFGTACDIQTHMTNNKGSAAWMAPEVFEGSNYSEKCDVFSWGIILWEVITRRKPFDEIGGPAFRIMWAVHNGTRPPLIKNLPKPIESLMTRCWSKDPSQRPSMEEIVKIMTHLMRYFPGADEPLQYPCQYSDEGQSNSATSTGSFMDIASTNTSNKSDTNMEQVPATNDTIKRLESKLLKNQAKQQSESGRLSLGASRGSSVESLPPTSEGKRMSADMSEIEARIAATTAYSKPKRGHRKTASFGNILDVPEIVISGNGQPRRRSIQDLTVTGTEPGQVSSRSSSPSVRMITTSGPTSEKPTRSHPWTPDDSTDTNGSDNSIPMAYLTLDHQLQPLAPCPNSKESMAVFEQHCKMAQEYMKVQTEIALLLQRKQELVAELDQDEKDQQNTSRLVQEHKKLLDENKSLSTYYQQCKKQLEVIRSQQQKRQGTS

[4] = target: Casein kinase II subunit alpha (Homo sapiens, UniProt P68400); experiment: Selectivity interaction (KinomeScan (DiscoverX)) EUB0000045b CSNK2A1
[5] = target: Serine/threonine-protein kinase N2 (Homo sapiens, UniProt Q16513); details: at 10 µM
Serine/threonine-protein kinase N2, sequence (Q16513 whole entry, looked up): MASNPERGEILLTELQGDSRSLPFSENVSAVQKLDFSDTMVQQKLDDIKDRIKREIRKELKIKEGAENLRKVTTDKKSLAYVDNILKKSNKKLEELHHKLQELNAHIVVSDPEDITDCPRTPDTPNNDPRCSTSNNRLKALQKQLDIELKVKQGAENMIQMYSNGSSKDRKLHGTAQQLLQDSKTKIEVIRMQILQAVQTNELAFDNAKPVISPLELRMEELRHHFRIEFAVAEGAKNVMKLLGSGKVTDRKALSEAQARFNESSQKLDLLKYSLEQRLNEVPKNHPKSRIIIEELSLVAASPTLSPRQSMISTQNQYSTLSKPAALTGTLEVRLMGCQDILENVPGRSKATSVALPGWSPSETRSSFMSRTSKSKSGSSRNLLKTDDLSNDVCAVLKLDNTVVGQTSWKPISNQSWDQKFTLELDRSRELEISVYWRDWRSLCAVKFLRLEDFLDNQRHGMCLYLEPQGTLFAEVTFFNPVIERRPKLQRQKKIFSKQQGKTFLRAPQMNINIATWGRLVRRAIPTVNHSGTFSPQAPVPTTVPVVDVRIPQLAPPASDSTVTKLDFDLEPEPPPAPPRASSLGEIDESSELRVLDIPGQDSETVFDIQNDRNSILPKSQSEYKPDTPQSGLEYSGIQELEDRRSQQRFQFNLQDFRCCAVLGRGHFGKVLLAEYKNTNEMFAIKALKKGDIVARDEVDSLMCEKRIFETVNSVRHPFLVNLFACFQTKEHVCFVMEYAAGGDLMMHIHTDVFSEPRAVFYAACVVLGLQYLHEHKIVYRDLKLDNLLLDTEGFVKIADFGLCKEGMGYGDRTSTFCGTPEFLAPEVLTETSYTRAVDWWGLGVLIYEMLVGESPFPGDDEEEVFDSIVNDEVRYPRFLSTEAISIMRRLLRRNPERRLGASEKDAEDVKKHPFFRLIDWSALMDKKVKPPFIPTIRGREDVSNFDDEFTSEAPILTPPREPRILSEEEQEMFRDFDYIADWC

Casein kinase II subunit alpha, sequence (P68400 whole entry, looked up): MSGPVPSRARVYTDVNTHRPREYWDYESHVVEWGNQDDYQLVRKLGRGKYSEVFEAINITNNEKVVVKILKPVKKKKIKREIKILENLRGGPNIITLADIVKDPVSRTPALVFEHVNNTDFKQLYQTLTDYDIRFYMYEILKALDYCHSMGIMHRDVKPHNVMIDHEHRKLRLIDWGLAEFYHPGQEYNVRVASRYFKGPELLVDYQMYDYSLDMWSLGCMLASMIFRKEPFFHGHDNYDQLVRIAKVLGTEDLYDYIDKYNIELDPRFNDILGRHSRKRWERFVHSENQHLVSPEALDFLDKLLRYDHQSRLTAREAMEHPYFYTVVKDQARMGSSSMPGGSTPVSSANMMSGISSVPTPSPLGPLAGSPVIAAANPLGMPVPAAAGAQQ
Calcium/calmodulin-dependent protein kinase kinase 2 (Homo sapiens), sequence (Q96RR4 2-588 limits assumed): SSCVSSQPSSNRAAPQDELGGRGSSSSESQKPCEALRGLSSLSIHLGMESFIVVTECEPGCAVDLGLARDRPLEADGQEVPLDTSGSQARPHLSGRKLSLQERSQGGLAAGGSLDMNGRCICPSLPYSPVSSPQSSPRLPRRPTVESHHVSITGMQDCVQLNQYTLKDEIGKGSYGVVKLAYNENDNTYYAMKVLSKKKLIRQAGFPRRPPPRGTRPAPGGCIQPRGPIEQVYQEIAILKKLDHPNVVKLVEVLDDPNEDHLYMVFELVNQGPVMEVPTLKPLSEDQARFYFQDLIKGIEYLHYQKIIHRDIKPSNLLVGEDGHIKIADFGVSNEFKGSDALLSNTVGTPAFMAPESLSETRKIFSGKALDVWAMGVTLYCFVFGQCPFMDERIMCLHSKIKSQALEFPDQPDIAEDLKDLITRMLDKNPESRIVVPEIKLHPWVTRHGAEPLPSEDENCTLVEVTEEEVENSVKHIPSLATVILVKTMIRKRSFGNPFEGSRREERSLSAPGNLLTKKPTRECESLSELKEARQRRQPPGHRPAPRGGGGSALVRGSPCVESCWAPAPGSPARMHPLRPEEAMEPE

Work on `CN(C)CCCOc1ccc(-c2cc(NCCCn3cccn3)nc(S(C)(=O)=O)n2)cc1` yielded a dTM (Peregrin (Homo sapiens)) of less than 2 K.

`CNC(=O)Nc1ccc(-c2nc(N3CC4CCC(C3)O4)c3cnn(C4CCC5(CC4)OCCO5)c3n2)cc1` was tested, and the % of inhibition [1] was 1%.

Compound `COc1cc(Nc2nc(C)cc(-c3cnn4nc(OC)ccc34)n2)cc(C(F)(F)F)c1` has a % of control [2] of 100%.

Compound `CN(C)CCOc1ccc(-c2nc(-c3ccncc3)c(-c3ccc4c(c3)CC/C4=N\O)[nH]2)cc1` has a % of control [3] of 89%.

Work on `C=CC(=O)Nc1cc(-n2c(=O)ccc3cnc4ccc(-c5ccc(NS(C)(=O)=O)cc5)cc4c32)ccc1C` yielded a % of control ([4]; at 1 µM) of 84% and a % of control ([4]; at 10 µM) of 51%.

For `Cc1cc([C@@H](C)Nc2ccccc2C(=O)O)c2nc(N3CCOCC3)cc(=O)n2c1` [AZD-6482], the % of control [5] was 98%.
